These results are taken from patent US12145947B2, “Pyrimidine based modulators and uses thereof” (Quanta Therapeutics, Inc., priority 2022, dated 2024).

What is called IC50 is the midpoint of a concentration-inhibition curve. The low end stands for inhibition by little substance, the high end for a need for much substance.

Assay [1] relates to GP2D cells (KRAS G12D), phospho-ERK. As to the kind of experiment: pERK In Cell Western (ICW) assay, GP2D cells. The assay is classed as cell-based. Particulars: Table 4, 3 hours. How it is done: pERK ICW is a high throughput screening assay to evaluate the cellular potency of mutant KRAS small molecule inhibitors. KRAS mutant cell lines AGS and GP2D (KRAS^G12D) were purchased from ATCC and maintained respectively in RPMI and DMEM medium supplemented with 10% fetal bovine serum and Penicillin/Streptomycin.
Cells grown in exponential phase were trypsinized, resuspended in fresh media, and viable cells were counted using a cell counter with Trypan Blue (BioRad TC20). Cells were seeded into 384-well plate (Greiner 781091) at density of 5,000 cells/well for AGS and 10,000 cells/well for GP2D and allowed to grow overnight in a 37° C. CO2 incubator. The next day, compounds were dispensed into wells with a ½ log, 10-point serial dilution and top concentration of […] using Tecan D300e dispenser and incubated for 3 hours in a 37° C. CO2 incubator. Cells were then fixed with paraformaldehyde (Electron Microscopy Sciences, 15710, 4% final concentration) for 30 min, permeabilized with wash buffer (1×PBS+0.1% Triton X-100) for 30 min and blocked with Odyssey blocking buffer (Li—COR 927-70001) for 1 hour, all at room temperature (RT). Phospho-ERK antibody (CST 4370L) was diluted 1:500 in Odyssey blocking+0.2% Tween 20 and incubated with cells overnight at 4° C. The next day, plates were washed 5× with wash buffer, incubated with IRDye 800 CW, Goat anti-Rabbit secondary antibody (Li—COR 926-32211, 1:500) and DRAQ5 (CST 4084L, 1:5,000) diluted in Odyssey blocking+0.2% Tween 20 for 1 hour, washed 5×, and imaged on an Odyssey CLx imaging system.
For data analysis, signal intensities from 800 (phosphor-ERK) and 700 (DRAQ5) channels were extracted, and phospho-ERK signals were normalized to DRAQ5 signals for each well and percent of DMSO control values were computed. Data were then imported into Graphpad Prism to compute half-maximal inhibitory concentrations (IC50) using a 4-parameter variable slope model. Z-factor for each plate was computed from signals derived from wells treated with either DMSO or […] of Trametinib. AGS pERK ICW (Method B) IC50 (uM) values of selected compounds are depicted in Table 2 with compounds having a value 0.001 uM to 0.01 uM as ++++; >0.01 uM to 0.1 uM as +++; >0.1 uM to 1 uM as ++; 1 uM to 10 uM as + and >10 uM as NA.

The next assay concerns the target T1, KRAS G12D/RAF1 (Homo sapiens, UniProt P01116, G12D).
T1 construct: His6-MBP (N, cleaved yes); made in house; host or cells: E. coli
The assay is described as follows: Protein-protein interaction (PPI) HTRF assay KRAS G12D/RAF1. The assay is classed as binding. The essentials:
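HTRF pairing of His-tagged RAF1 (52-131) plus Tb-cryptate donor with GppNHp-exchanged biotin-RAS (KRAS 1-169 wt/G12D/G12V, NRAS wt) plus streptavidin-d2 acceptor; compound sits 30 min with RAS first, then 1 h RT with RAF1. IC50 derived from 665/615 ratio, untagged RAF1 defining full inhibition.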

T1 sequence (P01116 with tags, fused parts or gaps isoform P01116-2 G12D): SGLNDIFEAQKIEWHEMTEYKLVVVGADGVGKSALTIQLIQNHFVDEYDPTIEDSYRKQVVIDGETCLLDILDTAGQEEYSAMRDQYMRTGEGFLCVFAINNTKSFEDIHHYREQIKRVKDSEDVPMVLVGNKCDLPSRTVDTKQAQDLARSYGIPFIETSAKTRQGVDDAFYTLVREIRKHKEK

In the case of `N#Cc1c(N2CCCn3nc(C(=O)C4CC4)c(Cl)c3C2)nc(OC[C@@]23CCCN2C[C@H](F)C3)nc1N1CC2(CCc3sc(N)c(C#N)c32)C1` [Compound 62, 2-amino-1′-[6-[3-chloro-2-(cyclopropanecarbonyl)-4,6,7,8-tetrahydropyrazolo[1,5-a][1,4]diazepin-5-yl]-5-cyano-2-[[(2R,8S)-2-fluoro-1,2,3,5,6,7-hexahydropyrrolizin-8-yl]methoxy]pyrimidin-4-yl]spiro[5,6-dihydrocyclopenta[b]thiophene-4,3′-azetidine]-3-carbonitrile], the IC50 in assay [1] was 10 to 100 nM; at KRAS G12D/RAF1 (Table 4), 10000 to 100000 nM.
On the same counts, the results for `Cc1n[nH]nc1COc1nc(N2C[C@H]3CC[C@@H](C2)N3)c(C#N)c(N2CC3(CCc4sc(N)c(C#N)c43)C2)n1` [Compound 108] are 1000 to 10000 nM and 10000 to 100000 nM.
The matching figures for `CN1CCN(CC2(COc3nc(N4C[C@H]5CC[C@@H](C4)N5)c(C#N)c(N4CC5(CCc6sc(N)c(C#N)c65)C4)n3)CC2)CC1=O` [Compound 80, 2-amino-1′-[5-cyano-2-[[1-[(4-methyl-3-oxo-piperazin-1-yl)methyl]cyclopropyl]methoxy]-6-[(1R,5S)-3,8-diazabicyclo[3.2.1]octan-3-yl]pyrimidin-4-yl]spiro[5,6-dihydrocyclopenta[b]thiophene-4,3′-azetidine]-3-carbonitrile]: 1 to 10 nM and 100 to 1000 nM.
The matching figures for `CC(=O)c1nn2c(c1Cl)CN(c1nc(OC[C@@]34CCCN3C[C@H](F)C4)nc(N3CC4(CCc5sc(N)c(C#N)c54)C3)c1C#N)CCC2` [Compound 13, 1′-[6-(2-acetyl-3-chloro-4,6,7,8-tetrahydropyrazolo[1,5-a][1,4]diazepin-5-yl)-5-cyano-2-[[(2R,8S)-2-fluoro-1,2,3,5,6,7-hexahydropyrrolizin-8-yl]methoxy]pyrimidin-4-yl]-2-amino-spiro[5,6-dihydrocyclopenta[b]thiophene-4,3′-azetidine]-3-carbonitrile]: 1 to 10 nM and 1000 to 10000 nM.
As to `CN(C)CC1(COc2nc(N3CC4CCC(C3)N4)c(C#N)c(N3CC4(CCc5sc(N)c(C#N)c54)C3)n2)CC1(F)F` (stereo not drawn) [Compound 74A, 2-amino-1′-[5-cyano-6-(3,8-diazabicyclo[3.2.1]octan-3-yl)-2-[[(1*)-1-[(dimethylamino)methyl]-2,2-difluoro-cyclopropyl]methoxy]pyrimidin-4-yl]spiro[5,6-dihydrocyclopenta[b]thiophene-4,3′-azetidine]-3-carbonitrile], the IC50 in assay [1] (listed as 74.1) is 1 to 10 nM; on KRAS G12D/RAF1 (Table 4, listed as 74.1), less than 100 nM.
In the case of `CN(C)C(=O)c1nn2c(c1Cl)CN(c1nc(OCC34CCCN3CCC4)nc(N3CC4(CCc5sc(N)c(C#N)c54)C3)c1C#N)CCC2` [Compound 18, 5-[6-(2-amino-3-cyano-spiro[5,6-dihydrocyclopenta[b]thiophene-4,3′-azetidine]-1′-yl)-5-cyano-2-(1,2,3,5,6,7-hexahydropyrrolizin-8-ylmethoxy)pyrimidin-4-yl]-3-chloro-N,N-dimethyl-4,6,7,8-tetrahydropyrazolo[1,5-a][1,4]diazepine-2-carboxamide], the IC50 in assay [1] is 10 to 100 nM; at KRAS G12D/RAF1 (Table 4) it was 100 to 1000 nM.
The matching figures for `N#Cc1c(N2C[C@H]3CC[C@@H](C2)N3)nc(OC[C@@]23CCCN2C[C@H](F)C3)nc1N1CC2(C1)c1c(sc(N)c1C#N)CC1CC12` (stereo partly drawn) [Compound 99, 2-amino-1′-[5-cyano-6-[(1R,5S)-3,8-diazabicyclo[3.2.1]octan-3-yl]-2-[[(2R,8S)-2-fluoro-1,2,3,5,6,7-hexahydropyrrolizin-8-yl]methoxy]pyrimidin-4-yl]spiro[4a,5,5a,6-tetrahydrocyclopropa[f]benzothiophene-4,3′-azetidine]-3-carbonitrile]: 1 to 10 nM and 100 to 1000 nM.
On the same counts, the results for `N#Cc1c(N2C[C@H]3COC[C@@H](C2)N3)nc(OCC2(CN3CCOCC3)CC2)nc1N1CC2(CCc3sc(N)c(C#N)c32)C1` [Compound 42, 2-amino-1′-[5-cyano-2-[[1-(morpholinomethyl)cyclopropyl]methoxy]-6-(3-oxa-7,9-diazabicyclo[3.3.1]nonan-7-yl)pyrimidin-4-yl]spiro[5,6-dihydrocyclopenta[b]thiophene-4,3′-azetidine]-3-carbonitrile] are 100 to 1000 nM and 1000 to 10000 nM.
On the same counts, the results for `N#Cc1c(N2C[C@H]3CC[C@@H](C2)N3)nc(OCc2ccn[nH]2)nc1N1CC2(CCc3sc(N)c(C#N)c32)C1` [Compound 79, 2-amino-1′-[5-cyano-6-[(1R,5S)-3,8-diazabicyclo[3.2.1]octan-3-yl]-2-(1H-pyrazol-5-ylmethoxy)pyrimidin-4-yl]spiro[5,6-dihydrocyclopenta[b]thiophene-4,3′-azetidine]-3-carbonitrile] are 10 to 100 nM and 100 to 1000 nM.
Turning to `N#Cc1c(N2CC3(CCc4sc(N)c(C#N)c43)C2)nc(OC[C@@]23CCCN2C[C@H](F)C3)nc1N1CCC[C@]2(C1)NC(=O)NC2=O` [Compound 11, 2-amino-1′-[5-cyano-6-[(5R)-2,4-dioxo-1,3,9-triazaspiro[4.5]decan-9-yl]-2-[[(2R,8S)-2-fluoro-1,2,3,5,6,7-hexahydropyrrolizin-8-yl]methoxy]pyrimidin-4-yl]spiro[5,6-dihydrocyclopenta[b]thiophene-4,3′-azetidine]-3-carbonitrile], the half-maximal inhibitory concentration (IC50) in assay [1] fell in the range of 1000 to 10000 nM; against KRAS G12D/RAF1 (Table 4), 100 to 1000 nM.
The matching figures for `CN(C)CC1(COc2nc(N3C[C@H]4CC[C@@H](C3)N4)c(C#N)c(N3CC4(CCc5sc(N)c(C#N)c54)C3)n2)CC1(F)F` (mixture of isomers) [Compound 74, 2-amino-1′-[5-cyano-6-(3,8-diazabicyclo[3.2.1]octan-3-yl)-2-[[1-[(dimethylamino)methyl]-2,2-difluoro-cyclopropyl]methoxy]pyrimidin-4-yl]spiro[5,6-dihydrocyclopenta[b]thiophene-4,3′-azetidine]-3-carbonitrile]: 1000 to 10000 nM and 10000 to 100000 nM.
On the same counts, the results for `C=C1CN2CCCC2(COc2nc(N3C[C@H]4CC[C@@H](C3)N4)c(C#N)c(N3CC4(CCc5sc(N)c(C#N)c54)C3)n2)C1` (stereo partly drawn) [Compound 94, 2-amino-1′-[5-cyano-2-[(6-methylene-2,3,5,7-tetrahydro-1H-pyrrolizin-8-yl)methoxy]-6-[(1R,5S)-3,8-diazabicyclo[3.2.1]octan-3-yl]pyrimidin-4-yl]spiro[5,6-dihydrocyclopenta[b]thiophene-4,3′-azetidine]-3-carbonitrile] are 1 to 10 nM and less than 100 nM.
In the case of `CN(C)C(=O)c1cc2n(n1)CCCN(c1nc(OC[C@@]34CCCN3C[C@H](F)C4)nc(N3CC4(CCc5sc(N)c(C#N)c54)C3)c1C#N)C2` [Compound 8, 5-[6-(2-amino-3-cyano-spiro[5,6-dihydrocyclopenta[b]thiophene-4,3′-azetidine]-1′-yl)-5-cyano-2-[[(2R,8S)-2-fluoro-1,2,3,5,6,7-hexahydropyrrolizin-8-yl]methoxy]pyrimidin-4-yl]-N,N-dimethyl-4,6,7,8-tetrahydropyrazolo[1,5-a][1,4]diazepine-2-carboxamide], the 50% inhibitory concentration (IC50) in assay [1] was 1 to 10 nM; at KRAS G12D/RAF1 (Table 4), 1000 to 10000 nM.
On to `N#Cc1c(N2C[C@H]3CC[C@@H](C2)N3)nc(OCC2(c3ccn[nH]3)CC2)nc1N1CC2(CCc3sc(N)c(C#N)c32)C1` [Compound 98, 2-amino-1′-[5-cyano-6-[(1R,5S)-3,8-diazabicyclo[3.2.1]octan-3-yl]-2-[[1-(1H-pyrazol-5-yl)cyclopropyl]methoxy]pyrimidin-4-yl]spiro[5,6-dihydrocyclopenta[b]thiophene-4,3′-azetidine]-3-carbonitrile], for which the 50% inhibitory concentration (IC50) (in assay [1]; on KRAS G12D/RAF1 (Table 4)) was 1000 to 10000 nM in each case.
Turning to `N#Cc1c(N)sc2c1C1(CC2)CN(c2nc(OCC3(CN4CCOCC4)CC3)nc(N3C[C@H]4CC[C@@H](C3)N4)c2F)C1` [Compound 22, 2-amino-1′-[6-(3,8-diazabicyclo[3.2.1]octan-3-yl)-5-fluoro-2-[[1-(morpholinomethyl)cyclopropyl]methoxy]pyrimidin-4-yl]spiro[5,6-dihydrocyclopenta[b]thiophene-4,3′-azetidine]-3-carbonitrile], the results for the IC50 (in assay [1]; on KRAS G12D/RAF1 (Table 4)) were 10 to 100 nM and 100 to 1000 nM, respectively.
